Data set [1] has as its system HIV. As to conditions: Tyms et al., Lancet, 1987; cited from earlier work.
For data set [2], the system named is HEF cells (strain MRC-5). Put plainly: HEF cell growth / monolayer appearance in HSV type II plaque reduction assay. Type of data set: cell-based, human. The procedure:
(§1) For plaque reduction assays, 24-well culture trays were seeded with HEF cells. Confluent monolayers were infected with virus to give initially about 100 plaque-forming-units (p.f.u.) per well. After a one hour absorption period the inocula were replaced by l.5ml of a maintenance medium incorporating 0.5% low gelling temperature agarose, supplemented with various concentrations of test compound. For tests with CMV, infected monolayers were fixed with 5% formalin in phosphate buffered saline (PBS) at 6-8 days post-infection and stained with 0.3% methylene blue after removal of the overlay; whereas, tests with HSV were conducted in the same manner but with the monolayer fixing at 2 days post infection. The mean plaque number was calculated from a multiple series of counts (e.g., duplicate, triplicate or quadruplicate), converted to a percentage of untreated controls and values plotted against the log10 drug concentration. The 50% effective dose (ED50) was determined from best line fits for the curves.
In general terms: In a plaque reduction assay, fewer plaques than in the control indicate reduced infectivity or spread.

Data set [3] deals with Herpes Simplex Type II (Viral Strain HG52). Put plainly: Herpes Simplex Type II Plaque Reduction Assay. Type of data set: cell-based. As to conditions: for EC50: HSV type II; for Plaque Count: replicate counts.
Source text: (§2) For testing the N-Bu-DNJ against HSV, the HSV Type II strain HG52 described by Timbury, J. Gen. Virol. 13, 373-376 (1971), and Davis et al., Analyst 110, 605-609 (1985), is useful. For testing against CMV, the prototype CMV ADl69 strain described, for example, by Tyms et al., J. Gen. Virol. 68, 1563-1573 (1987), and in U.S. Pat. No. 4,743,560, is useful. Another useful CMV strain is the Towne strain described by Glazer et al., Ann. Inter. Med. 91, 676-683 (1979).
(§3) Human embryo fibroblast cells (HEF) were grown in Eagles minimal essential medium supplemented with 7% fetal calf serum (FCS), 9 mM sodium bicarbonate and 7 mM HEPES buffer. In maintenance medium the supplements were adjusted to 2% FCS, 13 mM sodium bicarbonate and 14 mM HEPES. CMV, strain Towne, and HSV type II, strain […], were used in the following tests. CMV virus stocks were prepared and stored by technique as previously described by Tyms & Williamson, Nature 297, 690-691 […]. Herpes virus stocks were prepared and stored by technique as previously described by Davis et al., Analyst 110, 605-609 (1985). The HEF were human embryonic lung fibroblasts, strain MRC-5, as described by Tyms and Williamson, Nature 297, 690-691 (1982).
as §1
The mean plaque numbers determined on HEF cells exposed to varying amount of N-Bu-DNJ, N-Me-DNJ, N-He-DNJ, 2-deoxy-D-glucose and castanospermine were converted to percentage values (plaque count in presence of drug divided by mean value of untreated controls×100), and plotted as a function of drug concentration [drug (mM)].
The 50% effective dose (ED50)--that amount of drug needed to reduce plaque count by 50%--was calculated to give the following values: […]

Data set [4] concerns HEF cells (strain MRC-5). The format is cell-based, human. The procedure:
Triplicate titer plates were seeded with human embryo fibroblast (HEF) cells (about 7.5×10^3 cells/well), and after 4 days of growth in the absence of presence of 2-deoxy-D-glucose and N-Bu-DNJ were counted and compared to a control without test compound.

Data set [5] deals with Cytomegalovirus (Viral Strain Towne). Put plainly: Cytomegalovirus Plaque Reduction Assay. The format is cell-based. To be noted: for Plaque Count: replicate counts.
Source text: as §2, §3, §1
In a similar manner, the Effective Dosage Values (ED50) were determined from the curves of FIG. 1. A least squares fit of the data of FIG. 1 to an equation of the form: y=mx+b gave the following values: […]
From these values, a 50% effective dose (ED50) was calculated to give the following values: […]

Data set [6] shares this test system. Put plainly: Yield Reduction Assay against infections with CMV (Towne strain). As to conditions: for activity at 500 µM / activity at 2000 µM: read-out: % Virus Control. The format is cell-based. The procedure:
Antiviral activities of N-Bu-DNJ and comparative test compounds against infections with CMV (Towne strain) were also measured by the yield reduction assay as follows:
HEF cells (MRC-5) were infected at high multiplicity of infection (about one p.f.u. per cell) and incubated with various concentrations of the test compounds for 5 and 6 days post infection. The level of infectious virus shed into the extracellular fluid was determined at 5 and 6 days by plaque assays as described above, using serial dilution of extracellular fluid to bring readings on scale.
In Table VI, to calculate plaque-forming units (PFU) of the maintenance medium overlayering HEF cells, the plaque count at the most sensitive dilution (from Table V) was multiplied by dilution value and then by 5 (0.2 ml sample volumes used in test) to give PFU (per ml maintenance medium). (e.g. calculation of drug control: 31×10^3 ×5=1.6×10^5 PFU).

Setting [7] is: Human betaherpesvirus 5, MRC5, 120 h.
Where [8] appears, read: Human betaherpesvirus 5, MRC5, 144 h.

Where two headings read alike, the source gives them in different places.

Take `OC[C@H]1NC[C@H](O)[C@@H](O)[C@@H]1O` [DNJ, 1,5-dideoxy-l,5-imino-Dglucitol]: the “block of HIV growth (in words)” value in data set [1] is on record as “found to block the growth of the AIDS-associated virus HIV”.

Regarding `CCCCCCN1C[C@H](O)[C@@H](O)[C@H](O)[C@H]1CO` [N-He-DNJ, Nhexyl deoxynojirimycin], the “HEF cell growth (in words)” value in data set [2] (0.56 and 1.12 mM) is “grew normally”. For the same compound, in data set [2] (2.25 and 4.5 mM), the “appearance of HEF cell monolayers (in words)” value is “looked thin”. In addition, the “cell growth (in words)” value in data set [2] (higher concentrations (above 1.1 mM)) was “cell growth also was retarded”. The EC50 in data set [3] (HEF, tested up to 1.1 mM, read-out: estimated ED50) was around 250 µM. Further, the activity at 560 µM in data set [3] (HEF, Table III, 0.56 mM, read-out: % Virus Control) amounted to 31.4%. Further, in data set [3] (HEF, Table III, 1.12 mM, read-out: % Virus Control), the activity at 1120 µM came out at 15.7%. Besides, the “Plaque Count Avg” value is 16 in data set [3] (Table III, 0.56 mM) and 8 in data set [3] (Table III, 1.12 mM). Besides, the “Plaque Count” value in data set [3] (Table III, 2.25 mM) is “trace”; in data set [3] (Table III, 4.5 mM), “none”. Further, the “size of plaques compared to control test (in words)” value in data set [3] (Table III, 2.25 and 4.5 mM) was “significantly reduced”. In addition, in data set [3] (up to 1.1 mM), the “antiviral activity against HSV type II (in words)” value is listed as “substantial antiviral activity”.

On to `O=CC[C@@H](O)[C@H](O)[C@H](O)CO` [2-Deoxy-D-glucose, 2-deoxy-D-glucose, reference compound], for which, in data set [4], the “inhibitory effect on growth of normal cells (in words)” value is “substantially inhibits the growth”. The “inhibitory effect on herpesvirus type II (in words)” value in data set [3] (2.5 mM) is on record as “no inhibitory effect was observed”. In data set [3] (HEF, Table II, 2.5 mM, read-out: % Virus control), the activity at 2500 µM was at least 100%. For the same compound, the activity at 5000 µM in data set [3] (HEF, Table II, 5.0 mM, read-out: % Virus control) amounted to 77%. In data set [3] (Table II, 2.5 mM), the “Plaque Count Avg” value was 91 and the “Plaque Count” value was 94,88. In data set [3] (Table II, 5.0 mM), the “Plaque Count Avg” value worked out at 69 and the “Plaque Count” value is recorded as 61,76.

As to `CN1C[C@H](O)[C@@H](O)[C@H](O)[C@H]1CO` [N-Me-DNJ, Nmethyl deoxynojirimycin], in data set [3], the “antiviral activity against HSV type II (in words)” value is “substantially reduce herpesvirus type II infection of HEF cells”. Besides, in data set [3] (HEF, amount of drug needed to reduce plaque count by 50%, read-out: 50% effective dose (ED50)), the EC50 stood at 2800 µM. In addition, the activity at 280 µM in data set [3] (HEF, Table I, 0.28 mM, read-out: % Virus Control) is at least 100%. Besides, the activity at 560 µM in data set [3] (HEF, Table I, 0.56 mM, read-out: % Virus Control) turned out to be 99%. The activity at 1120 µM in data set [3] (HEF, Table I, 1.12 mM, read-out: % Virus Control) was 88%. For the same compound, the activity at 2240 µM in data set [3] (HEF, Table I, 2.24 mM, read-out: % Virus Control) was 50%. Also, the activity at 4480 µM in data set [3] (HEF, Table I, 4.48 mM, read-out: % Virus Control) worked out at 18%. Also, the “Plaque Count Avg” value is reported as 84 in data set [3] (Table I, 0.28 mM); 77 in data set [3] (Table I, 0.56 mM); 69 in data set [3] (Table I, 1.12 mM); 39 in data set [3] (Table I, 2.24 mM); 14 in data set [3] (Table I, 4.48 mM). Further, the “Plaque Count” value in data set [3] (Table I, 0.28 mM) is listed as 72,95; in data set [3] (Table I, 0.56 mM), 79,74; in data set [3] (Table I, 1.12 mM) it was 63,74; in data set [3] (Table I, 2.24 mM), 48,29; in data set [3] (Table I, 4.48 mM), 9,19.

`O[C@H]1[C@H](O)[C@@H](O)CN2CC[C@H](O)[C@H]12` [Castanospermine, castanospermine, reference compound]: the EC50 in data set [5] (Human betaherpesvirus 5, HEF, CMV, calculated from least squares fit of FIG. 1, read-out: 50% effective dose (ED50)) is 600 µM. In addition, the activity at 250 µM in data set [5] (Human betaherpesvirus 5, HEF, Table IV, 0.25 mM, read-out: % Virus control) came to 81%; in data set [3] (HEF, Table II, 0.25 mM, read-out: % Virus control) it was 56%. For the same compound, the activity at 500 µM in data set [5] (Human betaherpesvirus 5, HEF, Table IV, 0.50 mM, read-out: % Virus control) amounted to 55%; in data set [6] (setting [7]), 13%; in data set [6] (setting [8]) it was 6.2%; in data set [3] (HEF, Table II, 0.5 mM, read-out: % Virus control), 53%. Moreover, the activity at 1000 µM in data set [5] (Human betaherpesvirus 5, HEF, Table IV, 1.0 mM, read-out: % Virus control) worked out at 30%; in data set [3] (HEF, Table II, 1.0 mM, read-out: % Virus control) it was 42%. The activity at 2000 µM in data set [5] (Human betaherpesvirus 5, HEF, Table IV, 2.0 mM, read-out: % Virus control) is 12%; in data set [6] (setting [7]), 1.4%; in data set [6] (setting [8]) it was 0.48%; in data set [3] (HEF, Table II, 2.0 mM, read-out: % Virus control), 50%. In addition, the “Plaque Count Avg” value is recorded as 166 in data set [5] (Table IV, 0.25 mM); 113 in data set [5] (Table IV, 0.50 mM); 61 in data set [5] (Table IV, 1.0 mM); 25 in data set [5] (Table IV, 2.0 mM); 50 in data set [3] (Table II, 0.25 mM); 48 in data set [3] (Table II, 0.5 mM). For the same compound, the “Plaque Count Avg” value in data set [3] (Table II, 1.0 mM) stood at 38; in data set [3] (Table II, 2.0 mM) it was 45; in data set [3] (Table II, 4.0 mM), 32. Also, the “Plaque Count” value in data set [5] (Table IV, 0.25 mM) is 146,191,184,144; in data set [5] (Table IV, 0.50 mM), 108,112,122,111; in data set [3] (Table II, 0.25 mM), 46,54; in data set [3] (Table II, 0.5 mM) it was 52,44; in data set [3] (Table II, 1.0 mM), 21,55; in data set [3] (Table II, 2.0 mM), 61,28. The “Plaque Count” value in data set [3] (Table II, 4.0 mM) was 33,32. Moreover, the PFU is recorded as 2.1 × 10^4 PFU (per ml maintenance medium in data set [6] (0.5 mM, 5 days HEF growth); 2.3 × 10^4 PFU (per ml maintenance medium in data set [6] (0.5 mM, 6 days HEF growth); 2.3 × 10^3 PFU (per ml maintenance medium in data set [6] (2.0 mM, 5 days HEF growth); 1.8 × 10^3 PFU (per ml maintenance medium in data set [6] (2.0 mM, 6 days HEF growth). In addition, the activity at 4000 µM in data set [3] (HEF, Table II, 4.0 mM, read-out: % Virus control) was found to be 36%. Further, the “block of HIV growth (in words)” value in data set [1] is given as “found to block the growth of the AIDS-associated virus HIV”.

These data come from patent publication US4957926A, “Method of treating herpesviruses” (priority 1988, dated 1990).
